# Data: article PMC11470524, “A venom peptide-induced NaV channel modulation mechanism involving the interplay between fixed channel charges and ionic gradients” (The Journal of Biological Chemistry, 2024)
# Like-named read-outs stand apart in the source and are kept apart here. Where no end group is shown, it is not given here.
# Tests used:
# NaV channels = settings: cited from earlier work
# human NaV1.7 channel [1] = molecular target: T1, human NaV1.7 channel (Homo sapiens, UniProt Q15858); assay: Cumulative concentration-response, persistent (non-inactivating) current I40ms/Ipeak, NaV1.7; type: cell-based; settings: NaV1.7, HEK293, ratio of current at 40 ms to peak current, mean ± SD
# human NaV1.7 channel [2] = molecular target: T1, human NaV1.7 channel; assay: Whole-cell current-voltage (I-V) relationship, NaV1.7, standard solution; type: cell-based
# Method: Data are expressed as mean ± SD.
# Whole-cell current-voltage (I-V) recordings were recorded with an EPC 10 USB Heka patch clamp amplifier or an Axon 700B amplifier (Axon Instruments). Currents were filtered (−3 dB, 4-pole Bessel) at 2 kHz and sampled at 50 kHz. […] Leak subtraction was done using a p/4 protocol (4 pulses at a delay of 100 μs). Cell responses were accepted for analysis if the series resistance was ≤ 12 MΩ and was compensated for by ≥ 60%. […] The extracellular solution contained (in mM): 140 NaCl, 5 KCl, 1 MgCl2, 10 Hepes, and 10 D-glucose, adjusted to pH 7.4 with NaOH, whereas the intracellular solution contained (in mM) the following: 140 CsCl, 10 NaCl, 2 10 Hepes, and 5 EGTA adjusted to pH 7.4 with CsOH.
# Whole-cell conductance (G) was calculated using the following relation.(1) G=I/(Vm−Vrev) Where, I is the peak current, Vm is the corresponding step voltage and Vrev is the reversal potential (potential where current direction changes).
# T1 sequence (Q15858 whole entry): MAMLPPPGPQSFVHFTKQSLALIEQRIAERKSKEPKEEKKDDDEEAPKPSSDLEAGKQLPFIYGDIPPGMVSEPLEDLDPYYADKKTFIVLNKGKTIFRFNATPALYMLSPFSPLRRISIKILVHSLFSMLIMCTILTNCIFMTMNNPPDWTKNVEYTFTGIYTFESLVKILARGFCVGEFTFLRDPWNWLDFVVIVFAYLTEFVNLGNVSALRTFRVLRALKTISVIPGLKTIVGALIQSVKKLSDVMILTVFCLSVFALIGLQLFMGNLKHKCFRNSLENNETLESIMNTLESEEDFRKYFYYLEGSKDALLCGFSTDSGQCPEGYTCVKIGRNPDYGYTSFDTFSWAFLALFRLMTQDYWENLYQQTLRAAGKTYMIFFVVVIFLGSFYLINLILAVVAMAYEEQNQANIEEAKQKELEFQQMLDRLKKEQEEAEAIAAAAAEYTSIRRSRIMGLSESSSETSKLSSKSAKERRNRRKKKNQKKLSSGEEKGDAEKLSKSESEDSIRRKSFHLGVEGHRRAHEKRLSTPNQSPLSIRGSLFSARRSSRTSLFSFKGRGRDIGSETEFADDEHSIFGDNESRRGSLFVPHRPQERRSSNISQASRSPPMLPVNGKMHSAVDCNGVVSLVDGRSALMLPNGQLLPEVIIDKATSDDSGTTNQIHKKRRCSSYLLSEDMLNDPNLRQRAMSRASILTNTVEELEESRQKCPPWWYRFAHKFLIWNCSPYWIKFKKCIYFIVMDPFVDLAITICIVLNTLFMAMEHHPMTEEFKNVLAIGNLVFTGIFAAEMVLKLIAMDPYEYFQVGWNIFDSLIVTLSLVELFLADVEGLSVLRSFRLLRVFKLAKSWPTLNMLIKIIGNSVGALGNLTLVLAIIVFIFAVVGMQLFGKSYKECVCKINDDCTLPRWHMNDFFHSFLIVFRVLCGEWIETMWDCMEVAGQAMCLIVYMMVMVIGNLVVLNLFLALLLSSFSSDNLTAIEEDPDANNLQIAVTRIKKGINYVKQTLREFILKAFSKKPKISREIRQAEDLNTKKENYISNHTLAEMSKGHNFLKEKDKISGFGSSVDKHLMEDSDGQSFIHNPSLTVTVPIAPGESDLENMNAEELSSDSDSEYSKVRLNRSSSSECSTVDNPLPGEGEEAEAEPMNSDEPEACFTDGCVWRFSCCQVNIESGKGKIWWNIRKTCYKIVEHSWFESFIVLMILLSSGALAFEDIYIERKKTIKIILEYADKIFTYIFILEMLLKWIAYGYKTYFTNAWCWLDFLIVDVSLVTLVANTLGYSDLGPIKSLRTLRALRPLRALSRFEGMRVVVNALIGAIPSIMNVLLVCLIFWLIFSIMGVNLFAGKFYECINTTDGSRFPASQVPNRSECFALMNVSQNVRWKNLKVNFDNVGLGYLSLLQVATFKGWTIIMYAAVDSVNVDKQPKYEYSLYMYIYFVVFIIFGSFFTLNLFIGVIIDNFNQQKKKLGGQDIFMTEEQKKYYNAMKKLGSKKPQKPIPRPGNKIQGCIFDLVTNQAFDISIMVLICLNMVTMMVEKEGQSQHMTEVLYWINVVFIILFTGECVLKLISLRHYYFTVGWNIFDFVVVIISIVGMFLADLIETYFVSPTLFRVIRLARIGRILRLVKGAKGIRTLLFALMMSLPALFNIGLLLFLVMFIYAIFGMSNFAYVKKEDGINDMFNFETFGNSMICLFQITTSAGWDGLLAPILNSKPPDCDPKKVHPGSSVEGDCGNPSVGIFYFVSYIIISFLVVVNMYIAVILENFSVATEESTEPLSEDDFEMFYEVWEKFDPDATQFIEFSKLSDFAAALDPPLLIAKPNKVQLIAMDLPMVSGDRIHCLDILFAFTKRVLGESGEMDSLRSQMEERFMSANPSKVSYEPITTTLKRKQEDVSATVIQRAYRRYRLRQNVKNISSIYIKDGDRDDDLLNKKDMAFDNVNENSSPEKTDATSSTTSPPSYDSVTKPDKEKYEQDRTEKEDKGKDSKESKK
compound,measurement,setting,value
COc1ccc(C(=O)O[C@H]2CC[C@@]3(C)[C@@H]4CC[C@H]5[C@]6(O)C[C@H](O)[C@@]7(O)[C@@H](CN8C[C@@H](C)CC[C@H]8[C@@]7(C)O)[C@]6(O)C[C@@]53O[C@]24O)cc1OC [veratridine],Effect on NaV channels,"NaV channels; ref [15], [17], [18]",direct channel activators (agonists)
batrachotoxin,Effect on NaV channels,"NaV channels; ref [15], [17], [18]",direct channel activators (agonists)
same,Effect on ion selectivity,"NaV channels; ref [15], [17]",alter ion selectivity
ProTx-II: tarantula toxin,Effect on NaV channels,"NaV channels; ref [20], [21]",inhibit NaV channel currents by stabilizing S4 helices in the resting state
huwentoxin-IV,Effect on NaV channels,"NaV channels; ref [20], [21]",inhibit NaV channel currents by stabilizing S4 helices in the resting state
LAPIFALLLLSGLFSLPALQHYIAANYIN-NH2 [Ta3a[E24A + K25A]],"Efficacy (maximum response), I40ms/Ipeak",human NaV1.7 channel [1],0.35 ± 0.33
same,I-V profile versus control,"human NaV1.7 channel [2]; 30 nM analog, n = 4 cells",indistinguishable from control
same,Leftward shift of V1/2,"human NaV1.7 channel [2]; 1 μM analog, n = 7 cells",−4.5 mV
same,Leftward shift of Vrev,"human NaV1.7 channel [2]; 1 μM analog, n = 7 cells",−28 mV
same,Reduction in peak current,"human NaV1.7 channel [2]; 1 μM analog, n = 7 cells",~2 fold
